Measurements taken from patent US5607926A, “Cephalosporin antibiotics” (Microcide Pharmaceuticals, Inc., priority 1995, dated 1997).
In brackets after ≈: the same amount, converted by molar mass. Like-named read-outs stand apart in the source and are kept apart here.

Tests used:
Type in all cases: cell-based
S. aureus ATCC 29213 = assay: In vitro antibacterial evaluation, MIC by agar dilution, S. aureus ATCC 29213; conditions: Staphylococcus aureus, ATCC29213
Summary of the method: (§1)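 Two-fold dilutions of test compound, 128 μg/mL down to ≤0.25 μg/mL, were set in Mueller-Hinton agar in duplicate and spot-inoculated with about 10^4 cfu of log-phase culture. Plates were incubated 16-20 hours at 35°-36° C, and MIC taken as the lowest concentration inhibiting growth, following NCCLS agar dilution.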

[1] = tested on: S. aureus Col8A (Meth^S)(lac^-); assay: In vitro antibacterial evaluation, MIC by agar dilution, S. aureus Col8A; conditions: Staphylococcus aureus
Summary of the method: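 Agar dilution per NCCLS (1991): two-fold dilutions from 128 μg/mL down to ≤0.25 μg/mL in Mueller-Hinton agar, each level in duplicate. Spots of about 10^4 cfu of log-phase culture; 16-20 h at 35°-36° C. MIC in μg/ml is the lowest concentration inhibiting growth.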

E. coli ATCC 25922 = assay: In vitro antibacterial evaluation, MIC by agar dilution, E. coli ATCC 25922; conditions: Escherichia coli, ATCC25922, read-out: MIC
Summary of the method: as §1

P. aeruginosa ATCC 27853 = assay: In vitro antibacterial evaluation, MIC by agar dilution, P. aeruginosa ATCC 27853; conditions: Pseudomonas aeruginosa, ATCC27853, read-out: MIC
Summary of the method: as §1

S. haemolyticus (Meth^R) = assay: In vitro antibacterial evaluation, MIC by agar dilution, S. haemolyticus; conditions: Staphylococcus haemolyticus, read-out: MIC
Summary of the method: as §1

S. aureus ATCC 25923 = assay: In vitro antibacterial evaluation, MIC by agar dilution, S. aureus ATCC 25923; conditions: Staphylococcus aureus, ATCC25923
Summary of the method: as §1

E. faecalis ATCC 29212 = assay: In vitro antibacterial evaluation, MIC by agar dilution, E. faecalis ATCC 29212; conditions: Enterococcus faecalis, ATCC29212; E. faecalis ATCC 29212; read-out: MIC
Summary of the method: as §1

[2] = tested on: S. epidermidis ATCC 31432; assay: In vitro antibacterial evaluation, MIC by agar dilution, S. epidermidis ATCC 31432; conditions: Staphylococcus epidermidis, ATCC31432
Summary of the method: as §1

[3] = tested on: X. maltophilia ATCC 13637; assay: In vitro antibacterial evaluation, MIC by agar dilution, X. maltophilia ATCC 13637; conditions: Stenotrophomonas maltophilia, ATCC13637
Description: The compounds of the invention were evaluated against several β-lactamresistant bacteria strains by determining the minimum inhibitory concentration (MIC, μg/ml) of each compound with respect to each strain. The MIC, the lowest concentration of antibiotic which inhibits growth of the test organism, was determined by the agar dilution method.
To determine the MIC for bacterial isolates, the test compound was incorporated in a series of two-fold dilutions into liquified Mueller-Hinton agar. Upon solidification, a number of different bacterial strains were spot inoculated with a replicating device onto the agar surface. […] The procedures used in these studies have been standardized by the National Committee for Clinical Laboratory Standards (NCCLS), as per the NCCLS publication entitled METHODS FOR DILUTION ANTIMICROBIAL SUSCEPTIBILITY TESTS (1991), which is incorporated herein by reference.
Aliquots of antimicrobial agents were prepared in phosphate buffered saline (PBS) at pH 7.2. Tween 20 or DMSO was used as a solubilizing vehicle as needed. Standard methods of vortexing, sonicating and gentle heat were used to facilitate solubilizing the test agent. Typically, the concentration of the stock solution was 10× that of the highest drug concentration tested. A 1.28 mg/mL stock solution was used with a subsequent highest working concentration of 128 μg/mL. Serial two-fold dilutions were done through ≤0.25 μg/mL. Each drug level was tested in duplicate. Two-fold drug dilutions were done in sterile 50 mL tubes with a final drug volume of 5 mL. Upon the addition of 45 mL of molten agar, a 10-fold dilution resulted. Two, 25 mL. plates were then poured into 15×150 mm square Petri plates with grids and allowed to harden.
A control plate with a reference drug, either cefotaxime, vancomycin or imipenem, was used as the positive growth control. Stock concentrations of reference antibiotics were prepared and frozen at -80° C. Upon preparation, the control plates were sealed and stored in the refrigerator for up to 1 week prior to use; however, imipenem control plates had to be prepared just prior to use. All test plates were used within 24 hours of preparation.
Satisfactory results were obtained where the inoculum contained about 10^4 colony forming units (cfu) ±0.5 logs. Starting with pure cultures of the test isolates on agar plates, a few isolated colonies were transferred to a tube of nutrient broth and allowed to grow 4-6 hours at 35°-36° C. to reach log-phase growth. Dropwise addition of the broth culture to PBS was done to match a 0.5 McFarland turbidity standard equal to 10^8 cfu/mL. This was further diluted ten-fold in PBS to reach a working inoculum concentration of 10^7 cfu/mL. When 1 μL of the working inoculum was applied to the agar surface a concentration of about 10^4 cfu per spot was obtained.
Disposable sterile 1 μL loops were used to inoculate test plates, with each isolate in a designated grid on the agar plate. An alternate method of inoculation involved the use of a replica plater, a device with 48 steel pins allowing the simultaneous inoculation of multiple isolates. After the spots had dried, the plates were incubated at 35°-36° C. for 16-20 hours. Endpoints were assessed as the minimum inhibitory concentration (MIC) of antimicrobial agent.

E. faecium ATCC 35667 = assay: In vitro antibacterial evaluation, MIC by agar dilution, E. faecium ATCC 35667; conditions: Enterococcus faecium, ATCC35667, read-out: MIC
Summary of the method: as §1

[4] = tested on: S. aureus 76 (Meth^R)(lac^+); assay: In vitro antibacterial evaluation, MIC by agar dilution, S. aureus 76; conditions: Staphylococcus aureus, read-out: MIC
Summary of the method: as §1

[5] = S. aureus ATCC 29213, read-out: MIC
[6] = S. aureus ATCC 25923, read-out: MIC
[7] = S. epidermidis ATCC 31432, read-out: MIC

Row | SMILES | MIC (S. aureus ATCC 29213; [5]) | MIC [1] | MIC (E. coli ATCC 25922) | MIC (P. aeruginosa ATCC 27853) | MIC (S. haemolyticus (Meth^R)) | MIC (S. aureus ATCC 25923; [6]) | MIC (E. faecalis ATCC 29212) | MIC [2, 7] | MIC [3] | MIC (E. faecium ATCC 35667) | MIC [4] | MIC (S. aureus ATCC 25923) | MIC [2] | MIC (S. aureus ATCC 29213)
1 | O=C(Cc1ccccc1)N[C@@H]1C(=O)N2C(C(=O)O)=C(Sc3ccc(F)cc3)CS[C@H]12 [Cmpd 1, (7R)-7-[(Phenylacetyl)amino]-3-(p-fluorophenylthio)-3-cephem-4-carboxylic acid] | 0.03 µg/mL (≈ 0.0675 µM) | 0.03 µg/mL (≈ 0.0675 µM) | > 32 µg/mL | > 32 µg/mL | > 32 µg/mL | < 0.015 µg/mL | 2 µg/mL (≈ 4.5 µM) | < 0.015 µg/mL | > 32 µg/mL | 8 µg/mL (≈ 18 µM) | 32 µg/mL (≈ 72 µM) | – | – | –
2 | O=C(Cc1ccccc1)N[C@@H]1C(=O)N2C(C(=O)O)=C(Sc3cccc(I)c3)CS[C@H]12 [Cmpd 2, (7R)-7-[(Phenylacetyl)amino]-3-(m-iodophenylthio)-3-cephem-4-carboxylic acid] | 0.03 µg/mL (≈ 0.0543 µM) | 0.03 µg/mL (≈ 0.0543 µM) | > 32 µg/mL | > 32 µg/mL | 16 µg/mL (≈ 29 µM) | < 0.015 µg/mL | 2 µg/mL (≈ 3.62 µM) | < 0.015 µg/mL | > 32 µg/mL | 2 µg/mL (≈ 3.62 µM) | 16 µg/mL (≈ 29 µM) | – | – | –
3 | O=C(Cc1ccccc1)N[C@@H]1C(=O)N2C(C(=O)O)=C(Sc3ccc(Cl)cc3)CS[C@H]12 [Cmpd 3, (7R)-7-[(Phenylacetyl)amino]-3-(p-chlorophenylthio)-3-cephem-4-carboxylic acid] | 0.03 µg/mL (≈ 0.0651 µM) | 0.015 µg/mL (≈ 0.0325 µM) | > 32 µg/mL | > 32 µg/mL | 16 µg/mL (≈ 34.7 µM) | – | 2 µg/mL (≈ 4.34 µM) | – | > 32 µg/mL | 4 µg/mL (≈ 8.68 µM) | 16 µg/mL (≈ 34.7 µM) | < 0.015 µg/mL | < 0.015 µg/mL | –
4 | O=C(Cc1ccccc1)N[C@@H]1C(=O)N2C(C(=O)O)=C(Sc3ccccc3Br)CS[C@H]12 [Cmpd 4, (7R)-7-[(Phenylacetyl)amino]-3-(o-bromophenylthio)-3-cephem-4-carboxylic acid] | 0.125 µg/mL (≈ 0.247 µM) | < 0.06 µg/mL | > 32 µg/mL | > 32 µg/mL | 16 µg/mL (≈ 31.7 µM) | < 0.06 µg/mL | 4 µg/mL (≈ 7.91 µM) | < 0.06 µg/mL | > 32 µg/mL | 2 µg/mL (≈ 3.96 µM) | 4 µg/mL (≈ 7.91 µM) | – | – | –
5 | O=C(Cc1ccccc1)N[C@@H]1C(=O)N2C(C(=O)O)=C(Sc3ccc(Br)cc3)CS[C@H]12 [Cmpd 5, (7R)-7-[(Phenylacetyl)amino]-3-(p-bromophenylthio)-3-cephem-4-carboxylic acid] | 0.03 µg/mL (≈ 0.0594 µM) | 0.03 µg/mL (≈ 0.0594 µM) | > 32 µg/mL | > 32 µg/mL | 16 µg/mL (≈ 31.7 µM) | < 0.015 µg/mL | 2 µg/mL (≈ 3.96 µM) | < 0.015 µg/mL | > 32 µg/mL | 4 µg/mL (≈ 7.91 µM) | 16 µg/mL (≈ 31.7 µM) | – | – | –
6 | O=C(Cc1ccccc1)N[C@@H]1C(=O)N2C(C(=O)O)=C(Sc3ccc4c(c3)oc3ccccc34)CS[C@H]12 [Cmpd 7, (7R)-7-[(Phenylacetyl)amino]-3-(dibenzofuranyl-3-thio)-3-cephem-4-carboxylic acid] | < 0.06 µg/mL | 0.06 µg/mL (≈ 0.116 µM) | > 32 µg/mL | > 32 µg/mL | – | < 0.06 µg/mL | 1 µg/mL (≈ 1.94 µM) | < 0.06 µg/mL | > 32 µg/mL | – | 16 µg/mL (≈ 31 µM) | – | – | –
7 | O=C(Cc1ccccc1)N[C@@H]1C(=O)N2C(C(=O)O)=C(Sc3ccc(-c4ccccc4)cc3)CS[C@H]12 [Cmpd 8, (7R)-7-[(Phenylacetyl)amino]-3-(4-biphenylthio)-3-cephem-4-carboxylic acid] | – | < 0.125 µg/mL | > 32 µg/mL | > 32 µg/mL | – | – | 4 µg/mL (≈ 7.96 µM) | – | > 32 µg/mL | – | > 32 µg/mL | < 0.125 µg/mL | < 0.125 µg/mL | < 0.125 µg/mL
8 | O=C(Cc1ccccc1)N[C@@H]1C(=O)N2C(C(=O)O)=C(Sc3cccc(-c4ccccc4)c3)CS[C@H]12 [Cmpd 10, (7R)-7-[(Phenylacetyl)amino]-3-(3-biphenylthio)-3-cephem-4-carboxylic acid] | – | 0.125 µg/mL (≈ 0.249 µM) | > 32 µg/mL | > 32 µg/mL | – | < 0.06 µg/mL | 2 µg/mL (≈ 3.98 µM) | < 0.06 µg/mL | > 32 µg/mL | – | 32 µg/mL (≈ 63.7 µM) | – | – | 0.125 µg/mL (≈ 0.249 µM)
9 | O=C(Cc1ccccc1)N[C@@H]1C(=O)N2C(C(=O)O)=C(Sc3ccc(-c4ccccc4)cc3Br)CS[C@H]12 [Cmpd 11, (7R)-7-[(Phenylacetyl)amino]-3-(2-bromo-4-biphenylthio)-3-cephem-4-carboxylic acid] | 0.125 µg/mL (≈ 0.215 µM) | 0.06 µg/mL (≈ 0.103 µM) | > 32 µg/mL | > 32 µg/mL | 4 to 8 µg/mL (≈ 6.88 to 13.8 µM) | < 0.015 µg/mL | 2 µg/mL (≈ 3.44 µM) | 0.03 µg/mL (≈ 0.0516 µM) | > 32 µg/mL | 4 µg/mL (≈ 6.88 µM) | 4 µg/mL (≈ 6.88 µM) | – | – | –
10 | O=C(Cc1ccccc1)N[C@@H]1C(=O)N2C(C(=O)O)=C(Sc3ccc(-c4ccccc4)cc3F)CS[C@H]12 [Cmpd 13, (7R)-7-[(Phenylacetyl)amino]-3-(2-fluoro-4-biphenylthio)-3-cephem-4-carboxylic acid] | 0.06 µg/mL (≈ 0.115 µM) | 0.06 µg/mL (≈ 0.115 µM) | > 32 µg/mL | > 32 µg/mL | 16 µg/mL (≈ 30.7 µM) | < 0.015 µg/mL | 2 µg/mL (≈ 3.84 µM) | 0.03 µg/mL (≈ 0.0576 µM) | > 32 µg/mL | 4 µg/mL (≈ 7.68 µM) | 16 µg/mL (≈ 30.7 µM) | – | – | –
